# Read-outs that look alike come from different tables or passages of the source.
# How the values were obtained:
# TMPRSS2 = TMPRSS2 (Homo sapiens, UniProt O15393)
# Experimental: Negative ctrl: no inhibitor, positive ctrl: inhibitor in assay buffer. d Inhibitory constants Ki as determined from (a–c). Shown are the means ± SD of n = 1 experiment performed in triplicates. No inh. no inhibition.
# The activity of the compounds against the recombinant human enzymes was determined in enzyme inhibition assays. […] The measurements were performed on a Tecan infinite® M1000 and the fluorescence intensity was measured by exciting the AMC fluorophore at 380 nm wavelength and recording emission at 460 nm wavelength. […] Fluorescence intensities and absorption were measured every 2 min for 2 h or as endpoint after 2 h. […] To determine the IC50 values, the concentration-response data were plotted with the program GraphPad prism version 8.4.2 (San Diego, California) and a nonlinear regression fit with the equation [Inhibitor] vs. normalized response was applied. The inhibitory constant Ki was calculated from the IC50 values using the Cheng–Prusoff equation (Ki = IC50/[S]/KM) for competitive reversible inhibitors[66].
# The stability of the inhibitors was measured according to a modified procedure from ref. [67]. […] At indicated timepoints, 100 µL samples were taken and mixed with 200 µL of ethanol to precipitate proteins. […] The supernatant was aspirated and analyzed using analytical HPLC. The residual inhibitory constants Ki after incubation was assessed by mixing serial dilutions of the inhibitor with recombinant TMPRSS2 as described above.
# [1] = test system: lentiviral pseudoparticles carrying SARS-CoV-2 Alpha (B.1.1.7) spike, Caco-2 cells; type: cell-based; conditions: for SARS-CoV-2 spike driven entry, Mean (0 nM = 100): Fig. 5b
# [2] = test system: SARS-CoV-2 Beta (B.1.351), Caco-2 cells; type: cell-based; conditions: for SARS-CoV-2 infection, Mean (0 nM = 100): Fig. 6d, VOC Beta
# TMPRSS2, sequence (O15393 whole entry): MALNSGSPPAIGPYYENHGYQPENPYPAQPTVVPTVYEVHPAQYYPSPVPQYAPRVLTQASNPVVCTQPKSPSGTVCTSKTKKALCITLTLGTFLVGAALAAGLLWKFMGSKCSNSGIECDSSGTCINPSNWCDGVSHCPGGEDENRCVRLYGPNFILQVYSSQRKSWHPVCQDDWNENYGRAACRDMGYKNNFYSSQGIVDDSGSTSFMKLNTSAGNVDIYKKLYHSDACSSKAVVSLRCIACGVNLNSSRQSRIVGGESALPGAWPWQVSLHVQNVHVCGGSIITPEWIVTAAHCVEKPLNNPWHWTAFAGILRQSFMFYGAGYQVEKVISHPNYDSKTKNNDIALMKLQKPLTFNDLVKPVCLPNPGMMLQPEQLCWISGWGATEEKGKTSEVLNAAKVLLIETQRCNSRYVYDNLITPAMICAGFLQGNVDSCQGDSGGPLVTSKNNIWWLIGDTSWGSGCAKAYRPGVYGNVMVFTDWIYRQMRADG
substance,measurement,setting,value
ace-Arg-Pro-Arg-kbt [Compound 2],increase in Ki values against TMPRSS2,TMPRSS2; incubation in human serum during the course of 10 days,1.4–1.8 fold
same,"TMPRSS2 activity, Mean (0 nM = 100)","TMPRSS2; inhibitor 0.0167 nM, 0 min in serum",106.1220
same,"TMPRSS2 activity, Mean (0 nM = 100)","TMPRSS2; inhibitor 0.0167 nM, 30 min in serum",99.5878
same,"TMPRSS2 activity, Mean (0 nM = 100)","TMPRSS2; inhibitor 0.0167 nM, 60 min in serum",97.9753
same,"TMPRSS2 activity, Mean (0 nM = 100)","TMPRSS2; inhibitor 0.0167 nM, 120 min in serum",103.1067
same,"TMPRSS2 activity, Mean (0 nM = 100)","TMPRSS2; inhibitor 0.0167 nM, 24 h in serum",102.6336
same,"TMPRSS2 activity, Mean (0 nM = 100)","TMPRSS2; inhibitor 0.0167 nM, 10 d in serum",99.7199
same,"TMPRSS2 activity, Mean (0 nM = 100)","TMPRSS2; inhibitor 0.0167 nM, positive ctrl",99.3394
same,"TMPRSS2 activity, Mean (0 nM = 100)","TMPRSS2; inhibitor 0.167 nM, 0 min in serum",105.3800
same,"TMPRSS2 activity, Mean (0 nM = 100)","TMPRSS2; inhibitor 0.167 nM, 30 min in serum",98.0548
same,"TMPRSS2 activity, Mean (0 nM = 100)","TMPRSS2; inhibitor 0.167 nM, 60 min in serum",98.4409
same,"TMPRSS2 activity, Mean (0 nM = 100)","TMPRSS2; inhibitor 0.167 nM, 120 min in serum",101.9976
same,"TMPRSS2 activity, Mean (0 nM = 100)","TMPRSS2; inhibitor 0.167 nM, 24 h in serum",99.8791
same,"TMPRSS2 activity, Mean (0 nM = 100)","TMPRSS2; inhibitor 0.167 nM, 10 d in serum",99.7654
same,"TMPRSS2 activity, Mean (0 nM = 100)","TMPRSS2; inhibitor 0.167 nM, positive ctrl",97.2281
same,"TMPRSS2 activity, Mean (0 nM = 100)","TMPRSS2; inhibitor 1.665 nM, 0 min in serum",108.2341
same,"TMPRSS2 activity, Mean (0 nM = 100)","TMPRSS2; inhibitor 1.665 nM, 30 min in serum",98.1707
same,"TMPRSS2 activity, Mean (0 nM = 100)","TMPRSS2; inhibitor 1.665 nM, 60 min in serum",94.8463
same,"TMPRSS2 activity, Mean (0 nM = 100)","TMPRSS2; inhibitor 1.665 nM, 120 min in serum",98.7901
same,"TMPRSS2 activity, Mean (0 nM = 100)","TMPRSS2; inhibitor 1.665 nM, 24 h in serum",99.7583
same,"TMPRSS2 activity, Mean (0 nM = 100)","TMPRSS2; inhibitor 1.665 nM, 10 d in serum",103.5823
same,"TMPRSS2 activity, Mean (0 nM = 100)","TMPRSS2; inhibitor 1.665 nM, positive ctrl",91.5051
same,"TMPRSS2 activity, Mean (0 nM = 100)","TMPRSS2; inhibitor 16.65 nM, 0 min in serum",98.1805
same,"TMPRSS2 activity, Mean (0 nM = 100)","TMPRSS2; inhibitor 16.65 nM, 30 min in serum",91.6522
same,"TMPRSS2 activity, Mean (0 nM = 100)","TMPRSS2; inhibitor 16.65 nM, 60 min in serum",87.0886
same,"TMPRSS2 activity, Mean (0 nM = 100)","TMPRSS2; inhibitor 16.65 nM, 120 min in serum",89.1234
same,"TMPRSS2 activity, Mean (0 nM = 100)","TMPRSS2; inhibitor 16.65 nM, 24 h in serum",89.0776
same,"TMPRSS2 activity, Mean (0 nM = 100)","TMPRSS2; inhibitor 16.65 nM, 10 d in serum",93.1155
same,"TMPRSS2 activity, Mean (0 nM = 100)","TMPRSS2; inhibitor 16.65 nM, positive ctrl",59.7913
same,"TMPRSS2 activity, Mean (0 nM = 100)","TMPRSS2; inhibitor 166.5 nM, 0 min in serum",41.7125
same,"TMPRSS2 activity, Mean (0 nM = 100)","TMPRSS2; inhibitor 166.5 nM, 30 min in serum",36.7343
same,"TMPRSS2 activity, Mean (0 nM = 100)","TMPRSS2; inhibitor 166.5 nM, 60 min in serum",32.5087
same,"TMPRSS2 activity, Mean (0 nM = 100)","TMPRSS2; inhibitor 166.5 nM, 120 min in serum",34.3878
same,"TMPRSS2 activity, Mean (0 nM = 100)","TMPRSS2; inhibitor 166.5 nM, 24 h in serum",36.8130
same,"TMPRSS2 activity, Mean (0 nM = 100)","TMPRSS2; inhibitor 166.5 nM, 10 d in serum",52.5195
same,"TMPRSS2 activity, Mean (0 nM = 100)","TMPRSS2; inhibitor 166.5 nM, positive ctrl",21.7311
same,"TMPRSS2 activity, Mean (0 nM = 100)","TMPRSS2; inhibitor 1665 nM, 0 min in serum",8.0842
same,"TMPRSS2 activity, Mean (0 nM = 100)","TMPRSS2; inhibitor 1665 nM, 30 min in serum",8.9275
same,"TMPRSS2 activity, Mean (0 nM = 100)","TMPRSS2; inhibitor 1665 nM, 60 min in serum",5.1862
same,"TMPRSS2 activity, Mean (0 nM = 100)","TMPRSS2; inhibitor 1665 nM, 120 min in serum",6.5663
same,"TMPRSS2 activity, Mean (0 nM = 100)","TMPRSS2; inhibitor 1665 nM, 24 h in serum",7.0802
same,"TMPRSS2 activity, Mean (0 nM = 100)","TMPRSS2; inhibitor 1665 nM, 10 d in serum",12.0706
same,"TMPRSS2 activity, Mean (0 nM = 100)","TMPRSS2; inhibitor 1665 nM, positive ctrl",5.8217
same,IC50,"[1]; Caco-2 cells, luciferase 2 days post transduction, read-out: IC50 pseudotyped lentivirus Alpha",0.391 µM
same,"SARS-CoV-2 spike driven entry, Mean (0 nM = 100)",[1]; compound 3.2 nM,80.3695
same,"SARS-CoV-2 spike driven entry, Mean (0 nM = 100)",[1]; compound 16 nM,86.8245
same,"SARS-CoV-2 spike driven entry, Mean (0 nM = 100)",[1]; compound 80 nM,66.7955
same,"SARS-CoV-2 spike driven entry, Mean (0 nM = 100)",[1]; compound 400 nM,63.0945
same,"SARS-CoV-2 spike driven entry, Mean (0 nM = 100)",[1]; compound 2000 nM,24.7885
same,"SARS-CoV-2 spike driven entry, Mean (0 nM = 100)",[1]; compound 10000 nM,4.5995
same,"SARS-CoV-2 spike driven entry, Mean (0 nM = 100)",[1]; compound 50000 nM,0.953
same,"SARS-CoV-2 infection, Mean (0 nM = 100)",[2]; compound 32 nM,90.9628
same,"SARS-CoV-2 infection, Mean (0 nM = 100)",[2]; compound 160 nM,88.9778
same,"SARS-CoV-2 infection, Mean (0 nM = 100)",[2]; compound 800 nM,79.0008
same,"SARS-CoV-2 infection, Mean (0 nM = 100)",[2]; compound 4000 nM,83.4908
same,"SARS-CoV-2 infection, Mean (0 nM = 100)",[2]; compound 20000 nM,3.338
same,"SARS-CoV-2 infection, Mean (0 nM = 100)",[2]; compound 100000 nM,-2.162
same,IC50,[2]; read-out: IC50 SARS-CoV-2 Beta,6.88 µM
